Measured values taken from patent EP3352763B1 (priority 2015, dated 2017).

Legend:
[1] = test system: Influenzavirus A/Regensburg/D6/2009/H1N1; test: Screening of antiviral effect of test substances (Fig. 1); type: cell-based; conditions: for antivirale Aktivität: Fig. 1, result in words
[2] = test system: A/Mississippi/3/2001/H1N1; type: cell-based, Influenzaviren; conditions: TC50/EC50, A/Mississippi/3/2001/H1N1
Hantaviren = type: cell-based
[3] = test system: A/Regensburg/D6/2009/H1N1; type: cell-based, Influenzaviren; conditions: TC50/EC50, A/Regensburg/D6/2009/H1N1
[4] = test system: Influenza-Viren vom Stamm A/Regensburg/D6/2009/H1N1; type: cell-based
A/Victoria/3/75/H3N2 = type: cell-based, Influenzaviren
in vitro [5] = conditions: monkey, vero cells
in vitro [6] = conditions: dog, mdck

O=C(O)c1cc(O)c(O)c(O)c1 [Gallussäure, reference compound]
antivirale Aktivität [1]: antivirale Aktivität

O=C(/C=C/c1ccc(O)cc1)OC[C@H]1O[C@@H](Oc2c(-c3ccc(O)cc3)oc3cc(O)cc(O)c3c2=O)[C@H](O)[C@@H](O)[C@@H]1O [Tilirosid, Kaempferol-3-(6"-trans-p-coumaroyl)glucosid]
Selektivitätsindex (S.I.) [2]: 2.906
Wirkung gegen Hantaviren (Hantaviren): nicht gegen Hantaviren wirkt
Selektivitätsindex (S.I.) [3]: 433
antivirale Wirkung (Reduktion der Viruslast) [4]: > 90%
antiviraler Effekt [4]: keinen antiviralen Effekt
Reduktion der Viruslast ([4]; pre-incubation of the viruses with Tilirosid): keiner Reduktion der Viruslast
Selektivitätsindex (S.I.) (A/Victoria/3/75/H3N2): 134
CC50 (in vitro [5]): 126 µM
antivirale Aktivität [1]: höchste antivirale Aktivität
Reduktion der Viruslast ([1]; Fig. 1, screening of substances): > 90%
CC50 (in vitro [6]): 932 µM
TC50 (A549-Zellen): 1.862 µM
